From the supplement of paper PMC10307832

Columns and labels:
Test in all cases: relative viability (nuclei count vs DMSO), 5 days (fraction); higher = more cells survive
[1] = compound: NCC(=O)Nc1ccc(-n2nc(C(F)(F)F)cc2-c2ccc3c(ccc4ccccc43)c2)cc1 + COc1cc2c(Oc3ccc(NC(=O)C4(C(=O)Nc5ccc(F)cc5)CC4)cc3F)ccnc2cc1OCCCN1CCOCC1 [Foretinib] (partner 0.25 µM)
In short: (§1)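 Lung cancer cell lines were pin-tool dosed in 1536-well plates on the day after seeding, with either a lone drug or a fixed anchor-drug dose plus five library-drug doses (not always all listed) in √10 steps. Nuclei were counted on 4× images after 5 days. Relative viability is the ratio of treated-well to vehicle-well nuclei counts, with each value a median of duplicate plates.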

[2] = compound: NCC(=O)Nc1ccc(-n2nc(C(F)(F)F)cc2-c2ccc3c(ccc4ccccc43)c2)cc1 + Nc1nc2[nH]cc(CCc3ccc(C(=O)N[C@@H](CCC(=O)O)C(=O)O)cc3)c2c(=O)[nH]1 [Pemetrexed] (partner 0.2 µM)
In short: as §1

[3] = compound: C1CSC2=C(C(=O)N1)SC3=C2C=C(C=C3)O [kb NB 142-70] + Nc1nc2[nH]cc(CCc3ccc(C(=O)N[C@@H](CCC(=O)O)C(=O)O)cc3)c2c(=O)[nH]1 [Pemetrexed] (partner 0.2 µM)
In short: as §1

[4] = compound: NCC(=O)Nc1ccc(-n2nc(C(F)(F)F)cc2-c2ccc3c(ccc4ccccc43)c2)cc1 + Cc1cc(Nc2cc(N3CCN(C)CC3)nc(Sc3ccc(NC(=O)C4CC4)cc3)n2)n[nH]1 [Tozasertib] (partner 0.1 µM)
In short: as §1

| Cell Line | relative viability ([1]; first compound 0.02 µM) | relative viability ([1]; first compound 0.06325 µM) | relative viability ([1]; first compound 0.2 µM) | relative viability ([1]; first compound 0.6325 µM) | relative viability ([1]; first compound 2 µM) | relative viability ([2]; first compound 0.02 µM) | relative viability ([2]; first compound 0.06325 µM) | relative viability ([2]; first compound 0.2 µM) | relative viability ([2]; first compound 0.6325 µM) | relative viability ([2]; first compound 2 µM) | relative viability ([3]; first compound 0.1 µM) | relative viability ([3]; first compound 1 µM) | relative viability ([3]; first compound 3.162 µM) | relative viability ([4]; first compound 0.02 µM) | relative viability ([4]; first compound 0.06325 µM) | relative viability ([4]; first compound 0.2 µM) | relative viability ([4]; first compound 0.6325 µM) | relative viability ([4]; first compound 2 µM) |
| --- | --- | --- | --- | --- | --- | --- | --- | --- | --- | --- | --- | --- | --- | --- | --- | --- | --- | --- |
| NCI-H2085 | 1.02 | 1.05 | 1.07 | 0.812 | 1.1 | 0.831 | 0.967 | 0.92 | 0.892 | 1.01 | 0.866 | 0.947 | 0.792 | 0.697 | 0.853 | 0.836 | 0.878 | 0.807 |
| SW 900 |  | 1 | 0.863 | 0.855 | 1.04 | 0.501 | 0.495 | 0.453 | 0.508 | 0.495 | 0.451 | 0.523 | 0.468 |  | 0.509 | 0.594 | 0.533 | 0.511 |
